Biological target: T1, BRM (Homo sapiens, UniProt P51531)
T1 construct: In-Cell Western Screen of BRM Degradation in SW1573 Cells; endogenous in cells; host or cells: SW1573
Experiment: In-cell Western screen of BRM degradation in SW1573 cells (Dmax and DC50)
Type: cell-based
Conditions: BRM degradation, SW1573 cells; for DC50: read-out: DC50; for Dmax: read-out: Dmax (%) (% degraded)
Method in brief: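 Overnight compound treatment (18-20 h, final DMSO 0.1%) of SW1573 cells in DMEM with 10% FBS precedes fixation and in-cell Western staining with 800/680 nm dye-labelled secondaries. Plate images give DC50 and maximal degradation.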

[1] = when tested at the top concentration of between 0.3 and 10 μM

T1 sequence (P51531 whole entry): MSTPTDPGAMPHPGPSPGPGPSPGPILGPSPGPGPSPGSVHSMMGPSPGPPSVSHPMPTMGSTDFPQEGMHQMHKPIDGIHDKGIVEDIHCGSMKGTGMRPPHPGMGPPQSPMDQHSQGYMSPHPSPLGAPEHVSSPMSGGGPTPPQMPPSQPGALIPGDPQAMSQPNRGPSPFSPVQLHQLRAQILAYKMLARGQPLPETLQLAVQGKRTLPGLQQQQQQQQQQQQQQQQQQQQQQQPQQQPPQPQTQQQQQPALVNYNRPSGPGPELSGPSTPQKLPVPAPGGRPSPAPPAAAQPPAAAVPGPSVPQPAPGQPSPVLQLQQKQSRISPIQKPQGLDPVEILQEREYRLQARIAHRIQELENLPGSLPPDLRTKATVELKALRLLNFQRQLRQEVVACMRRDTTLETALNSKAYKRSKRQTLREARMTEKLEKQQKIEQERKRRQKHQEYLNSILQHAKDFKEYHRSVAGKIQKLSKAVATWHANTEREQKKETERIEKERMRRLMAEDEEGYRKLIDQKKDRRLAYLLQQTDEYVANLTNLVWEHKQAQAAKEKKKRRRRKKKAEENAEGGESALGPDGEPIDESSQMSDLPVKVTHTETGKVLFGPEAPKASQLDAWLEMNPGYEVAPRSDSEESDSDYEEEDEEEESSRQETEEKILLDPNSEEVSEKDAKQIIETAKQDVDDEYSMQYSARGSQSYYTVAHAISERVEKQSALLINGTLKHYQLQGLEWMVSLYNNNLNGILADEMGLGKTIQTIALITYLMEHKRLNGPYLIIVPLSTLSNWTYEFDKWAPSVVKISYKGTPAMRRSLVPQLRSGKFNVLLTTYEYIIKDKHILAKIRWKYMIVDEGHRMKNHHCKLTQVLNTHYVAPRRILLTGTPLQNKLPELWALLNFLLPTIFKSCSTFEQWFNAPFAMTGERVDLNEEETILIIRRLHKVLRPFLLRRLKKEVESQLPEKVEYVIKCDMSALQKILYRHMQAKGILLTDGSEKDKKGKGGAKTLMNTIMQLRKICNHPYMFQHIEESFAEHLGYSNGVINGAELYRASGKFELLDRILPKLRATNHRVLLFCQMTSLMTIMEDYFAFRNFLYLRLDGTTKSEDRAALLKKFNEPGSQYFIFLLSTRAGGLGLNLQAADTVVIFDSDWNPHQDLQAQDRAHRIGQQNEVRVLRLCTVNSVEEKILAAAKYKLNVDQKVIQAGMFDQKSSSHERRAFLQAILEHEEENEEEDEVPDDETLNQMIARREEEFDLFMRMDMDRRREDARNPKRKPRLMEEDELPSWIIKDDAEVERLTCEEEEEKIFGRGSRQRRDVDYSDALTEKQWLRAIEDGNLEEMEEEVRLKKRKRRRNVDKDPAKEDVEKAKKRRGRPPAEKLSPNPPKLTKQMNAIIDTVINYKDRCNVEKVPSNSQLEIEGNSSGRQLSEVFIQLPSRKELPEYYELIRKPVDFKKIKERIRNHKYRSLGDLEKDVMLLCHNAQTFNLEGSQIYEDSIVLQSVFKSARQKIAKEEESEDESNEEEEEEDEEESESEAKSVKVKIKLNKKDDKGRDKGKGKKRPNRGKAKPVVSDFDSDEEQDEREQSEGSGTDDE

Row | SMILES | DC50 [nM] | Dmax [1] [%] | Dmax (%) (% degraded) [1]
1 | Cc1ncsc1-c1ccc(CNC(=O)[C@@H]2C[C@@H](O)CN2C(=O)[C@@H](NC(=O)COCCOCCOCCOCCCc2cc(N3C4CCC3CN(c3cc(-c5ccccc5O)nnc3N)C4)ccn2)C(C)(C)C)cc1 [compound 53, (2S,4R)-1-((S)-18-(4-(3-(3-amino-6-(2-hydroxyphenyl)pyridazin-4-yl)-3,8-diaza-bicyclo[3.2.1]octan-8-yl)pyridin-2-yl)-2-tert-butyl-4-oxo-6,9,12,15-tetraoxa-3-azaoctadecan-1-oyl)-4-hydroxy-N-(4-(4-methylthiazol-5-yl)benzyl)pyrrolidine-2-carboxamide] | 2.5 to 10 | > 75 | 
2 | Cc1ncsc1-c1ccc([C@H](C)NC(=O)[C@@H]2C[C@@H](O)CN2C(=O)[C@H](c2onc(OCCN3CCN(CCOc4cc(N5C6CCC5CN(c5cc(-c7ccccc7O)nnc5N)C6)ccn4)CC3)c2Cl)C(C)C)cc1 [compound 54, (2S,4R)-1-((2S)-2-(3-(2-(4-(2-((4-(3-(3-amino-6-(2-hydroxyphenyl)pyridazin-4-yl)-3,8-diazabicyclo[3.2.1]octan-8-yl)pyridin-2-yl)oxy)ethyl)piperazin-1-yl)ethoxy)-4-chloroisoxazol-5-yl)-3-methylbutanoyl)-4-hydroxy-N-((S)-1-(4-(4-methylthiazol-5-yl)phenyl)ethyl)pyrrolidine-2-carboxamide] | > 30 | > 75 | 
3 | Cc1ncsc1-c1ccc([C@H](C)NC(=O)[C@@H]2C[C@@H](O)CN2C(=O)[C@@H](c2onc(OCCN3CCN(CCOc4cc(N5C6CCC5CN(c5cc(-c7ccccc7O)nnc5N)C6)ccn4)CC3)c2Cl)C(C)C)cc1 [compound 55, (2S,4R)-1-((2R)-2-(3-(2-(4-(2-((4-(3-(3-amino-6-(2-hydroxyphenyl)pyridazin-4-yl)-3,8-diazabicyclo[3.2.1]octan-8-yl)pyridin-2-yl)oxy)ethyl)piperazin-1-yl)ethoxy)-4-chloroisoxazol-5-yl)-3-methylbutanoyl)-4-hydroxy-N-((S)-1-(4-(4-methylthiazol-5-yl)phenyl)ethyl)pyrrolidine-2-carboxamide] | < 2.5 | > 75 | 
4 | Cc1ncsc1-c1ccc(CNC(=O)[C@@H]2C[C@@H](O)CN2C(=O)C(c2cc(OCC=Cc3ccc(OC4CC(Oc5cc(N6C7CC[C@@H]6CN(c6cc(-c8ccccc8O)nnc6N)C7)ccn5)C4)cn3)no2)C(C)C)cc1 (stereo partly drawn) [compound 56, (2S,4R)-1-(2-(3-((3-(5-((1r,3r)-3-((4-(3-(3-amino-6-(2-hydroxyphenyl)pyridazin-4-yl)-3,8-diazabicyclo[3.2.1]octan-8-yl)pyridin-2-yl)oxy)cyclobutoxy)pyridin-2-yl)allyl)oxy)isoxazol-5-yl)-3-methylbutanoyl)-4-hydroxy-N-(4-(4-methylthiazol-5-yl)benzyl)pyrrolidine-2-carboxamide] | < 2.5 |  | A (A > 75)
5 | Cc1ncsc1-c1ccc(CNC(=O)[C@H]2C[C@H](O)CN2C(=O)C(c2cc(OCCN3CCN(CCOc4cc(N5C6CCC5CN(c5cc(-c7ccccc7O)nnc5N)C6)ccn4)CC3)no2)C(C)C)cc1 (stereo partly drawn) [compound 57, (2R,4S)-1-(2-(3-(2-(4-(2-((4-(3-(3-amino-6-(2-hydroxyphenyl)pyridazin-4-yl)-3,8-diazabicyclo[3.2.1]octan-8-yl)pyridin-2-yl)oxy)ethyl)piperazin-1-yl)ethoxy)isoxazol-5-yl)-3-methylbutanoyl)-4-hydroxy-N-(4-(4-methylthiazol-5-yl)benzyl)pyrrolidine-2-carboxamide] |  | < 50 | 
6 | Cc1ncsc1-c1ccc([C@H](C)NC(=O)[C@@H]2C[C@@H](O)CN2C(=O)[C@@H](NC(=O)Cc2ccc(N3CCN(CCO[C@H]4C[C@H](Oc5cc(N6C7CCC6CN(c6cc(-c8ccccc8O)nnc6N)C7)ccn5)C4)CC3)nc2)C(C)(C)C)cc1 [compound 58, (2S,4R)-1-((2S)-2-(2-(6-(4-(2-((1r,3r)-3-((4-(3-(3-amino-6-(2-hydroxyphenyl)pyridazin-4-yl)-3,8-diazabicyclo[3.2.1]octan-8-yl)pyridin-2-yl)oxy)cyclobutoxy)ethyl)piperazin-1-yl)pyridin-3-yl)acetamido)-3,3-dimethylbutanoyl)-4-hydroxy-N-((S)-1-(4-(4-methylthiazol-5-yl)phenyl)ethyl)pyrrolidine-2-carboxamide] | > 30 | 50 to 75 | 
7 | Cc1ncsc1-c1ccc([C@H](C)NC(=O)[C@@H]2C[C@@H](O)CN2C(=O)[C@H](c2cc(OCCCc3ccc(C(C)n4cc(-c5cc(-c6ccccc6O)nnc5N)cn4)cc3)no2)C(C)C)cc1 (stereo partly drawn) [compound 59, (2S,4R)-1-((2S)-2-(3-(3-(4-(1-(4-(3-amino-6-(2-hydroxyphenyl)pyridazin-4-yl)-1H-pyrazol-1-yl)ethyl)phenyl)propoxy)isoxazol-5-yl)-3-methylbutanoyl)-4-hydroxy-N-((S)-1-(4-(4-methylthiazol-5-yl)phenyl)ethyl)pyrrolidine-2-carboxamide] | > 30 | > 75 | 
8 | Cc1ncsc1-c1ccc([C@H](C)NC(=O)[C@@H]2C[C@@H](O)CN2C(=O)[C@@H](c2cc(OCCCc3ccc(C(C)n4cc(-c5cc(-c6ccccc6O)nnc5N)cn4)cc3)no2)C(C)C)cc1 (stereo partly drawn) [compound 60, (2S,4R)-1-((2R)-2-(3-(3-(4-(1-(4-(3-amino-6-(2-hydroxyphenyl)pyridazin-4-yl)-1H-pyrazol-1-yl)ethyl)phenyl)propoxy)isoxazol-5-yl)-3-methylbutanoyl)-4-hydroxy-N-((S)-1-(4-(4-methylthiazol-5-yl)phenyl)ethyl)pyrrolidine-2-carboxamide] | < 2.5 | > 75 | 
9 | Cc1ncsc1-c1ccc([C@H](C)NC(=O)[C@@H]2C[C@@H](O)CN2C(=O)[C@@H](NC(=O)COCCCc2ccc(C(C)n3cc(-c4cc(-c5ccccc5O)nnc4N)cn3)cn2)C(C)(C)C)cc1 (stereo partly drawn) [compound 61, (2S,4R)-1-((2S)-2-(2-(3-(5-(1-(4-(3-amino-6-(2-hydroxyphenyl)pyridazin-4-yl)-1H-pyrazol-1-yl)ethyl)pyridin-2-yl)propoxy)acetamido)-3,3-dimethylbutanoyl)-4-hydroxy-N-((S)-1-(4-(4-methylthiazol-5-yl)phenyl)ethyl)pyrrolidine-2-carboxamide] | 10 to 30 | > 75 | 
10 | Cc1ncsc1-c1ccc([C@H](C)NC(=O)[C@@H]2C[C@@H](O)CN2C(=O)[C@@H](c2cc(OCCN3CCN(CCOCCn4cc(-c5cc(-c6ccccc6O)nnc5N)cn4)CC3)no2)C(C)C)cc1 [compound 62, (2S,4R)-1-((R)-2-(3-(2-(4-(2-(2-(4-(3-amino-6-(2-hydroxyphenyl)pyridazin-4-yl)-1H-pyrazol-1-yl)ethoxy)ethyl)piperazin-1-yl)ethoxy)isoxazol-5-yl)-3-methylbutanoyl)-4-hydroxy-N-((S)-1-(4-(4-methylthiazol-5-yl)phenyl)ethyl)pyrrolidine-2-carboxamide] | 2.5 to 10 | > 75 | 
11 | Cc1ncsc1-c1ccc([C@H](C)NC(=O)[C@@H]2C[C@@H](O)CN2C(=O)[C@H](c2cc(OCCOCCOCCCCN3CC4(C3)CN(c3cc(-c5ccccc5O)nnc3N)C4)no2)C(C)C)cc1 [compound 65, (2S,4R)-1-((S)-2-(3-(2-(2-(4-(6-(3-amino-6-(2-hydroxyphenyl)pyridazin-4-yl)-2,6-diazaspiro[3.3]heptan-2-yl)butoxy)ethoxy)ethoxy)isoxazol-5-yl)-3-methylbutanoyl)-4-hydroxy-N-((S)-1-(4-(4-methylthiazol-5-yl)phenyl)ethyl)pyrrolidine-2-carboxamide] | > 30 |  | 
12 | Cc1ncsc1-c1ccc([C@H](C)NC(=O)[C@@H]2C[C@@H](O)CN2C(=O)[C@@H](c2cc(OCCOCCOCCCCN3CC4(C3)CN(c3cc(-c5ccccc5O)nnc3N)C4)no2)C(C)C)cc1 [compound 66, (2S,4R)-1-((R)-2-(3-(2-(2-(4-(6-(3-amino-6-(2-hydroxyphenyl)pyridazin-4-yl)-2,6-diazaspiro[3.3]heptan-2-yl)butoxy)ethoxy)ethoxy)isoxazol-5-yl)-3-methylbutanoyl)-4-hydroxy-N-((S)-1-(4-(4-methylthiazol-5-yl)phenyl)ethyl)pyrrolidine-2-carboxamide] | > 30 | > 75 | 
13 | Cc1ncsc1-c1ccc([C@H](C)NC(=O)[C@@H]2C[C@@H](O)CN2C(=O)[C@H](c2cc(OCCOCCOCCCCN3CCC4(CC3)CCN(c3cc(-c5ccccc5O)nnc3N)CC4)no2)C(C)C)cc1 [compound 67, (2S,4R)-1-((S)-2-(3-(2-(2-(4-(9-(3-amino-6-(2-hydroxyphenyl)pyridazin-4-yl)-3,9-diazaspiro[5.5]undecan-3-yl)butoxy)ethoxy)ethoxy)isoxazol-5-yl)-3-methylbutanoyl)-4-hydroxy-N-((S)-1-(4-(4-methylthiazol-5-yl)phenyl)ethyl)pyrrolidine-2-carboxamide] | > 30 |  | 
14 | Cc1ncsc1-c1ccc([C@H](C)NC(=O)[C@@H]2C[C@@H](O)CN2C(=O)[C@@H](c2cc(OCCOCCOCCCCN3CCC4(CC3)CCN(c3cc(-c5ccccc5O)nnc3N)CC4)no2)C(C)C)cc1 [compound 68, (2S,4R)-1-((R)-2-(3-(2-(2-(4-(9-(3-amino-6-(2-hydroxyphenyl)pyridazin-4-yl)-3,9-diazaspiro[5.5]undecan-3-yl)butoxy)ethoxy)ethoxy)isoxazol-5-yl)-3-methylbutanoyl)-4-hydroxy-N-((S)-1-(4-(4-methylthiazol-5-yl)phenyl)ethyl)pyrrolidine-2-carboxamide] | 2.5 to 10 | > 75 | 
